Reference: a melting point compilation (Tetko et al.; mined from patent text by program, amines drawn as free bases though some values may be those of a salt)

| melting point | SMILES |
| --- | --- |
| 72 to 75 °C | COc1ccc(S(=O)(=O)N(Cc2ccccc2)C(Cc2nnn(C)n2)C(=O)NO)cc1 (stereo not given) |
| 209 to 211 °C | CCOC(=O)CCN(C)Cc1ccc(NC(=O)C2=Cc3cc(-c4ccc(N5CCOCC5)cc4)ccc3S(=O)(=O)CC2)cc1 |
| 111 to 113 °C | CCCNC(=O)n1nc(Oc2c(Cl)cc(C(F)(F)F)cc2[N+](=O)[O-])cc1C |
| 97 to 99 °C | CCOC(=O)C(C)(Sc1cc2ccccc2[nH]1)c1ccccc1 (stereo not given) |
| 59 to 62.5 °C | Cc1ccc(S(=O)(=O)N(F)C(C)(C)C)cc1 |
| 207 °C | COc1ccc(-c2nsc3ccc([N+](=O)[O-])cc23)cc1 |
| 130 °C | CCc1ccccc1-n1ncc(C#N)c1N |
| 189 to 191 °C | CC1(C)Oc2ccc([N+](=O)[O-])cc2C(C(N)=O)=C1O |
| 92 °C | O=c1oc(OCc2ccccc2)c(Cl)c2ccccc12 |
| 121 to 125 °C | CCOC(=O)c1cc(-c2ccncc2)c(C(F)(F)F)nc1N |
| 200 °C | CC1(C)OC(=S)Nc2ccc(-c3ccc(C#N)o3)cc21 |
| 136 to 138 °C | COc1ccc(CCCCC(=O)O)cc1NC(=O)C[C@H]1O[C@H](c2cccc(OC)c2OC)c2cc(Cl)ccc2N(CC(C)(C)CO)C1=O |
| 115 to 116 °C | C#CCc1c(C)nc2c(NCc3ccccc3Cl)cccn12 |
| 119 to 123 °C | CN1C(=O)C(c2cccc(-c3cccnc3F)c2)(c2cc(C=NO)n(CCCF)c2)N=C1N (stereo not given) |
| > 300 °C | Oc1nc2cc(F)ccc2n2cnnc12 |
| 125 to 127 °C | NS(=O)(=O)c1cccc2cc[nH]c12 |
| 234 to 236 °C | COc1c(-c2ccccc2)csc1-c1cnn2c(O)ccnc12 |
| 92 to 93 °C | CC(=O)c1cc(C)ccc1OCCCN1CCC(c2noc3cc(F)ccc23)CC1 |
| 53 to 54 °C | COC(=O)Cc1c(C)nc(C)nc1Cl |
| 248 to 250 °C | Cc1nn(-c2cc3nc(S)sc3cc2F)c(=O)n1C(F)F |

| melting point | SMILES |
| --- | --- |
| 90 to 91 °C | COC(=O)c1ccc(Cl)cc1NC(=O)CSc1ccc(C)c(C)c1 |
| 229 to 232 °C | O=C(Nc1cccc([N+](=O)[O-])c1)c1ccc([N+](=O)[O-])cc1 |
| > 310 °C | O=S1(=O)N=C(Nc2ccccn2)Nc2ccc(Cl)cc21 |
| 114 to 115 °C | CC(C)(C)c1ccc([Si](C)(C)COc2cc(C(C)(C)C)c(O)c(C(C)(C)C)c2)cc1 |
| 200 to 202 °C | CC(=O)N1N=C2C(=Cc3cccc(C(F)(F)F)c3)CS(=O)(=O)CC2C1c1cccc(C(F)(F)F)c1 (stereo not given) |
| 221 to 222 °C | Cc1c(O)ccc2oc(-c3ccc(O)cc3)cc12 |
| 121 to 123 °C | COC(=O)Cc1nsc(NC(=O)OCc2ccccc2)n1 |
| 152 to 153 °C | COc1ccc(Cn2c(=O)ccc3c(C)nc(N4CCC[C@H]4CO)nc32)cc1Cl |
| 129 °C | CCN(c1ccc(C(=O)O)nn1)C(C)c1cc(Br)ccc1OCc1ccccc1 (stereo not given) |
| 165 to 166 °C | CCOC(=O)CC(=O)Nc1ncc(Br)s1 |
| 112 to 113 °C | Cc1nnc(-c2ccc3occ(-c4ccccc4F)c3c2)o1 |
| 143 °C | CC(=O)OC1CSC(Oc2c(C)ccnc2-c2cccnc2)C(OC(C)=O)C1OC(C)=O (stereo not given) |
| 159 to 160 °C | COc1ccc(S(=O)(=O)Nc2cccnc2Nc2ccccc2OC)cc1 |
| 59 to 61 °C | CCOC(=O)C(C)(Cc1ccc([N+](=O)[O-])cc1)C(=O)OCC |
| 139 to 141 °C | O=C1CC2CCC1C(Nc1ccc(Cl)cc1)C21CCCCC1 (stereo not given) |
| > 250 °C | c1ccc(Cc2cnc(N3CCN(c4ncnc5ccccc45)CC3)nc2)cc1 |
| 59 to 72 °C | CCN(CC)c1ccc(N(c2ccc(N(CC)CC)cc2)C2(c3ccc(N(C)C)cc3C)OC(=O)c3ccccc32)cc1 (stereo not given) |
| 178 to 180 °C | Cc1cccc(C)c1NC(C)C(=O)O (stereo not given) |
| 167 to 169 °C | CNC(=O)OC1CC2(CCN(CCCC(=O)c3ccc(F)cc3)C2)c2ccccc21 (stereo not given) |
| 125 to 127 °C | CNS(=O)(=O)c1ccc(Oc2ccncc2)cc1 |
